Measured values reported in US5321041A, “Diphenylpyrrolylfuran derivatives” (Nihon Iyakuhin Kogyo Co., Ltd., priority 1992, dated 1994).

Experiments:
[1] = tested on: auricle edema induced by arachidonic acid; experiment: Inhibitory activity on auricle edema induced by arachidonic acid; assay type: in vivo, ddY mice; settings: mouse, oral, 1 hour after arachidonic acid
Method: EXPERIMENT 5: INHIBITORY ACTIVITY ON AURICLE EDEMA INDUCED BY ARACHIDONIC ACID
[…]. Dermatol. 82, p. 367, 1984. The mice were orally administered with a test drug suspended in 0 5% CMC-Na, and after one hour, 10 μl of arachidonic acid in acetone (50 mg/ml) were applied to front and back surfaces of the left auricles of each mouse. One hours later, the thicknesses of the left and right auricles were measured by means of a dial gauge, and the rate of edema of the left auricle was calculated in comparison with the right auricle (normal). Inhibitory rate of each drug-treated group against edema formation was calculated in comparison with the solvent-treated control.

[2] = tested on: paw edema induced by carageenin; experiment: Inhibitory activity on paw edema induced by carageenin; assay type: in vivo, Wistar rats; settings: rat, oral, 10 mg/kg, 3 hours after carageenin
Method: EXPERIMENT 4: INHIBITORY ACTIVITY ON PAW EDEMA INDUCED BY CARAGEENIN
Wistar rats (body weight: 110-130 g) starved overnight were orally administered with a test drug suspended in 0.5% CMC-Na, and after one hour, 0.1 ml of 1% carageenin solution (picnin-A, Zushi Kagaku) was subcutaneously injected into the right hind leg paw of each rat. Three hours later, the volume of the paw was determined by means of a plethysmometer (Model 7150, Ugo Basile Co.,Ltd.) and the rate of edema was evaluated in comparison with the volume of the paw before the carageenin injection as 100%. Inhibitory rate of each drug-treated group against edema formation was calculated in comparison with the solvent-treated control.

[3] = tested on: lipid peroxidation (crude homogenate prepared from brain tissues of Wistar rats); experiment: Inhibitory activity on lipid peroxidation (anti-oxidation activity); assay type: biochemical; settings: rat brain homogenate, 37° C., 30 minutes; malondialdehyde, 532 nm
Method: EXPERIMENT 1: INHIBITORY ACTIVITY ON LIPID PEROXIDATION (ANTI-OXIDATION ACTIVITY)
The captioned activity was evaluated according to the method described by Kakihana et al., Nihon Yakurigaku Zasshi (Folia Pharmacologica Japonica), 80, p. 225, 1982. To a 1 ml of a crude homogenate prepared from brain tissues of Wistar rats, 10 μl of a solution of test drug in dimethyl sulfoxide was added, and after pre-incubation under ice-cooling for 10 minutes, the mixture was subjected to a reaction at 37° C. for 30 minutes. The reaction was stopped by adding 200 μl of 35% perchloric acid to the mixture and then the mixture was centrifuged. To a 1 ml of the supernatant obtained, 0.5 ml of 0.5% thiobarbituric acid was added and the mixture was heated under a boiling water bath for 15 minutes. The mixture was cooled to room temperature and absorbance of the mixture at 532 nm was measured. The inhibitory rate was obtained using the amount of malondialdehyde generated by the solvent-treated control, which equals to 100%, and 50% median inhibitory concentration (IC50) was calculated according to the probit method as indexes of anti-oxidation activity.

[4] = tested on: auricle edema induced by oxazolone; experiment: Effect on auricle edema induced by oxazolone (delayed allergy); assay type: in vivo, ICR mice; settings: mouse, oral, 10 mg/kg × 2 (30 minutes before, 6 hours after), 24 hours
Method: EXPERIMENT 6: EFFECT ON AURICLE EDEMA INDUCED BY OXAZOLONE (DELAYED ALLERGY)
[…]. The mice were sensitized by the application of 0.1 ml of 0.5% oxazolone in ethanol to shaven abdominal skin. Five days later, inflammation was induced by applying 10 μl of 0.5% oxazolone in acetone to front and back surfaces Of the right auricle. After 24 hours, the thicknesses of the left and right auricles were measured by a dial gauge, and the rate of edema of the right auricle was calculated in comparison with the left auricle (normal). A test drug was suspended in 0.5% CMC--Na and orally administered twice to each mouse , i.e., 30 minutes before and 6 hours after the inflammation-inducing treatment. Inhibitory rate of each drug-treated group against edema was calculated in comparison with the solvent-treated control.

cyclooxygenase = biological target: T1, cyclooxygenase (Ovis aries, UniProt P05979); experiment: Inhibitory activity on cyclooxygenase; assay type: biochemical; settings: PGE2 generation, sheep seminal vesicle microsome, 16 μM 14C-arachidonic acid, pH 8.3
T1 construct: Sheep seminal vesicle microsome fraction (Funakoshi) was used as an enzyme sample; purchased Funakoshi; host or cells: sheep seminal vesicle microsome fraction
T1 sequence (P05979 25-600): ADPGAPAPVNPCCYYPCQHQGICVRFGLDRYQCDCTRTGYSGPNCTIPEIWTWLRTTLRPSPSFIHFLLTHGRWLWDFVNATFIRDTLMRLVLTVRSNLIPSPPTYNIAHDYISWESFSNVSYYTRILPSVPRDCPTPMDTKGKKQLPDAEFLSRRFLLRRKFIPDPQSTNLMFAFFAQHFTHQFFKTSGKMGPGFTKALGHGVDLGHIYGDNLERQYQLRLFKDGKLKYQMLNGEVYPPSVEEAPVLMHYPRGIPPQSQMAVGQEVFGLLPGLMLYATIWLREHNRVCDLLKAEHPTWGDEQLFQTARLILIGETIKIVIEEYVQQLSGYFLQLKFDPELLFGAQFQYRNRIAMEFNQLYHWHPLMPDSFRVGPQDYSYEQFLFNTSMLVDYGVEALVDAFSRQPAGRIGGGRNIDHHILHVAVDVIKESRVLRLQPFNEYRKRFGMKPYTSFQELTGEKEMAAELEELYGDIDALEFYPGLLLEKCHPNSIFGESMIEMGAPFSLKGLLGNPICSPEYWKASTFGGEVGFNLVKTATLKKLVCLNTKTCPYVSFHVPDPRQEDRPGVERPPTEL
Method: EXPERIMENT 3: INHIBITORY ACTIVITY ON CYCLOOXYGENASE
Sheep seminal vesicle microsome fraction (Funakoshi) was used as an enzyme sample. A solution of a test drug was mixed with a reaction solution (3 μM epinephrine, 3 mM glutathione, and the enzyme fraction in 100 mM Tris-HCI buffer, pH 8.3). The mixture was pre-incubated at 37° C. for 5 minutes, and then 16 μ M^14 C-arachidonic acid was added to the mixture, which was allowed to react for 3 minutes. After the completion of the reaction, the product was immediately extracted, dissolved in chloroform/methanol (2:1) and developed by thin-layer chromatography. Radioactivity of the prostaglandin E2 (PGE2) fraction was measured using a liquid scintillation counter. Inhibitory rate of each drug-treated group against PGE2 generation was obtained in comparison with the solvent-treated control, and IC50 was calculated according to the probit method.

granuloma formation = experiment: Inhibitory activity on granuloma formation (proliferative inflammation); assay type: in vivo, Wistar rats; settings: rat, oral, 10 mg/kg every day for 8 days
Method: EXPERIMENT 7: INHIBITORY ACTIVITY ON GRANULOMA FORMATION (PROLIFERATIVE INFLAMMATION)
Evaluation was carried out by using Wistar rats (120-140 g) according to the method described by Fujiyoshi et al., Nihon Yakurigaku Zasshi (Folia Pharmacologica Japonica), 87, p. 379, 1986. Back skin of the rat was lightly incised under anesthesia with pentobarbital, and filter paper discs for antibiotic assay (57 mg, 13.0.phi., Whatman) sterilized by autoclave were embedded under the skin at the both axillae. 0.1 ml of a mixture of streptomycin and penicillin G (each 1 mg/ml) was administered dropwise to the incised site and the incised skin was sutured. From the day of the disc embedment, a test drug suspended in 0.5% CMC--Na was orally administered to the rat every day for 8 days. The rat was sacrificed at the day of last administration and granuloma including the filter paper was extirpated from the circumferential tissue and dried at 110° C. overnight. The dry weight of the granuloma was measured and inhibitory rate of each drug-treated group against granulation formation was calculated in comparison with the solvent-treated control.

ddY mice = experiment: Acute toxicity; assay type: in vivo; settings: mouse, oral, 600 mg/kg, observed for 2 weeks
From the text: EXPERIMENT 9: ACUTE TOXICITY

5-lipoxygenase = biological target: T2, 5-lipoxygenase (Cavia porcellus, UniProt A0A286X958); experiment: Inhibitory activity on 5-lipoxygenase; assay type: biochemical, guinea pigs; settings: 5-HETE generation, 20 μM 14C-arachidonic acid, pH 7.4, 37° C., 10 minutes
T2 construct: crude enzyme fraction prepared from peritoneal exudated cells of guinea pigs; endogenous in cells; host or cells: guinea pig peritoneal exudate cells (induced by intraperitoneal casein), crude enzyme fraction
T2 sequence (A0A286X958 1-674): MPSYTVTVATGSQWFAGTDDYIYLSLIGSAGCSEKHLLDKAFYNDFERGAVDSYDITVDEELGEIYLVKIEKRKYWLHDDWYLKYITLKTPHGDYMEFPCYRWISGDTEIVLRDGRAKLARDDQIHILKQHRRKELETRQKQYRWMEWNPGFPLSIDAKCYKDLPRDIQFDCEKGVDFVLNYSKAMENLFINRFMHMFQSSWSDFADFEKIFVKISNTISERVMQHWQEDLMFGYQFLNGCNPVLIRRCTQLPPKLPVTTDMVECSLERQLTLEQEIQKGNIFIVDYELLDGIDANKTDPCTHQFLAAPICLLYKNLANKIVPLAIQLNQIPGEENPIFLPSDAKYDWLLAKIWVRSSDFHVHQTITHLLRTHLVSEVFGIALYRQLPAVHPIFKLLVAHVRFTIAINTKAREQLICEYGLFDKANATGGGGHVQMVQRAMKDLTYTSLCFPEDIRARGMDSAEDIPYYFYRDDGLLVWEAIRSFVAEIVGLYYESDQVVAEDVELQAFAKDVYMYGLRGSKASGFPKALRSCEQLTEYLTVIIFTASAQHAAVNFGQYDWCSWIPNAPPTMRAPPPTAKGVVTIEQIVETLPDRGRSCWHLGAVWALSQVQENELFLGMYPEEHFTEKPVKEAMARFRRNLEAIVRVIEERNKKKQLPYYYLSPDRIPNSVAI
Method: EXPERIMENT 2: INHIBITORY ACTIVITY ON 5-LIPOXYGENASE
5-Lipoxygenase activity was determined according to the method described by Ochi et al., J. Biol. Chem.,258, p. 5754, 1983 using a crude enzyme fraction prepared from peritoneal exudated cells of guinea pigs which were induced by intraperitoneal injection of 2% case in solution. A solution of a test drug was mixed with a reaction solution (2mM ATP, 1 mM glutathione,and the enzyme fraction in 50 mM phosphate buffer, PH 7.4) and the mixture was pre-incubated at 37° C. for 5 minutes. Calcium chloride (1 mM) and 20 μM^14 C-arachidonic acid were added to the mixture, and then the mixture was subjected to a reaction at 37° C. for 10 minutes. After the completion of the reaction, the product was immediately extracted, dissolved in chloroform/methanol (2:1), and developed by thin-layer chromatography. Radioactivity of the 5-hydroxyeicosatetraenoic acid (5-HETE) fraction was measured using a liquid scintillation counter. Inhibitory rate of each drug-treated group against 5-HETE generation was obtained in comparison with the solvent-treated control, and IC50 was calculated according to the probit method.

Row | SMILES | Inhibition on Edema (%) ([1]; 30 mg/kg) | IC50 [3] | IC50 (cyclooxygenase) | also measured
1 | O=C(O)Cn1cccc1-c1cc(-c2ccccc2)c(-c2ccccc2)o1 [Compound 114] | 41.9% | – | – | –
2 | CC(C)c1cc(-c2cc(-c3ccccc3)c(-c3ccccc3)o2)n(CC(=O)O)c1 [Compound 117] | – | 4.83 µM | – | Inhibition on Edema (%) [2]: 50.9%
3 | COc1ccc(-c2cc(-c3cc(C(C)C)cn3CC(=O)O)oc2-c2ccccc2)cc1 [Compound 142] | – | – | – | Inhibition on Edema (%) [4]: 62.2%; Inhibition on Edema (%) [2]: 45.4%
4 | COc1ccc(-c2oc(-c3cccn3CC(=O)O)cc2-c2ccccc2)cc1 [Compound 150] | – | – | 0.082 µM | –
5 | CCc1ccc(-c2cc(-c3ccc(OC)cc3)c(-c3ccc(C)cc3)o2)n1CC(=O)O [Compound 165] | – | 2.73 µM | – | –
6 | COc1ccc(-c2cc(-c3cccn3CC(=O)O)oc2-c2ccc(OC)cc2)cc1 [Compound 175] | 50.6% | 3.63 µM | 0.069 µM | Inhibition on Granuloma (%) (granuloma formation): 32.2%; Inhibition on Edema (%) [4]: 52.1%; Inhibition on Edema (%) [2]: 44.1%; Dead Mice/Total Mice (ddY mice): 1/5
7 | COc1ccc(-c2cc(-c3cccn3C(C)C(=O)O)oc2-c2ccc(OC)cc2)cc1 (stereo not drawn) [Compound 176] | 30.6% | 4.49 µM | 0.111 µM | Inhibition on Granuloma (%) (granuloma formation): 32.4%; Inhibition on Edema (%) [4]: 56.4%
8 | COc1ccc(-c2cc(-c3cccn3CCC(=O)O)oc2-c2ccc(OC)cc2)cc1 [Compound 178] | – | 3.24 µM | – | –
9 | COc1ccc(-c2oc(-c3cccn3CC(=O)O)c(C)c2-c2ccc(OC)cc2)cc1 [Compound 184] | – | 3.13 µM | 0.075 µM | –
10 | CCc1cc(-c2cc(-c3ccc(OC)cc3)c(-c3ccc(OC)cc3)o2)n(CC(=O)O)c1 [Compound 185] | – | 2.2 µM | 0.095 µM | IC50 (5-lipoxygenase): 1 µM
11 | COc1ccc(-c2cc(-c3cc(C(C)C)cn3CC(=O)O)oc2-c2ccc(OC)cc2)cc1 [Compound 188] | 55.0% | 2.41 µM | – | IC50 (5-lipoxygenase): 1.11 µM; Inhibition on Granuloma (%) (granuloma formation): 29.7%; Inhibition on Edema (%) [4]: 44.2%; Dead Mice/Total Mice (ddY mice): 4/5
12 | COc1ccc(-c2cc(-c3ccc(C)n3CC(=O)O)oc2-c2ccc(OC)cc2)cc1 [Compound 192] | – | – | 0.057 µM | IC50 (5-lipoxygenase): 0.91 µM; Inhibition on Edema (%) [2]: 38.4%; Dead Mice/Total Mice (ddY mice): 0/5
13 | CCCc1ccc(-c2cc(-c3ccc(OC)cc3)c(-c3ccc(OC)cc3)o2)n1CC(=O)O [Compound 195] | 43.9% | – | – | IC50 (5-lipoxygenase): 0.91 µM
14 | CCOc1ccc(-c2cc(-c3ccc(CC)n3CC(=O)O)oc2-c2ccc(OCC)cc2)cc1 [Compound 217] | – | 2.44 µM | – | –
15 | CC(C)Cc1ccc(C(C)C(=O)O)cc1 (stereo not drawn) [Ibuprofen, reference compound] | – | – | – | Inhibition on Edema (%) ([1]; 100 mg/kg): 0%
